PubChem BioAssay (NCI)
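All cell lines were grown in 96-well plates and treated with compound for 48 hours. TGI marks complete inhibition of growth.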

How the values were obtained:
Assay in all cases: NCI tumour cell line growth inhibition, 48 h
A549 NSCLC = system: A549 NSCLC
BT-549 breast = system: BT-549 breast
COLO 205 colon = system: COLO 205 colon
HCT-15 colon = system: HCT-15 colon
IGROV1 ovarian = system: IGROV1 ovarian
LOX IMVI melanoma = system: LOX IMVI melanoma
OVCAR-5 ovarian = system: OVCAR-5 ovarian
T-47D breast = system: T-47D breast
UACC-257 melanoma = system: UACC-257 melanoma
RXF 393 renal = system: RXF 393 renal

SMILES	TGI (A549 NSCLC) [µM]	TGI (BT-549 breast) [µM]	TGI (COLO 205 colon) [µM]	TGI (HCT-15 colon) [µM]	TGI (IGROV1 ovarian) [µM]	TGI (LOX IMVI melanoma) [µM]	TGI (OVCAR-5 ovarian) [µM]	TGI (T-47D breast) [µM]	TGI (UACC-257 melanoma) [µM]	TGI (RXF 393 renal) [µM]
COC(=O)c1ccc(OCc2ccc3nc(-c4ccccc4)c(Cl)nc3c2)cc1	> 100	> 100	> 100	> 100	> 100	> 100	> 100	> 100	> 100	–
CCOc1cc(C=O)ccc1O	> 100	–	> 100	> 100	> 100	> 100	> 100	> 100	> 100	–
c1ccc(C/C(=N\Nc2nc3ccccc3o2)c2ccccn2)cc1	> 34.6	5.73	0.0114	4.64	0.609	2.27	–	> 33.5	3.85	1.92
Cn1c(=O)c2[nH]c(N/N=C3/SCC(=O)N3Cc3ccccc3)nc2n(C)c1=O	> 100	> 100	> 100	> 100	> 100	–	> 100	> 100	> 100	> 100
O=C1O/C(=C\c2ccc(O)cc2)C(c2ccc(O)c(Cl)c2)=C1Br	–	23.8	33.4	26.7	25.7	61.2	35.4	62.9	26.8	59.8
COCCCN1C(=O)C2c3[nH]c4ccccc4c3C3CCC(C(C)(C)C)CC3C2C1=O (stereo not given)	> 100	> 100	> 10	44.7	> 100	–	–	> 100	79.4	51.3
O=C(CCCN1CCc2[nH]c3cc(F)ccc3c2C1)c1ccc(F)cc1	29.5	–	17.1	31.3	30.2	17.5	24.7	36.1	28.8	28.3
CC(=O)Nc1ccc(C(=O)N2N=C(C)/C(=C/c3cccc(O)c3)C2=O)cc1	> 100	–	> 100	> 100	–	> 100	> 100	–	> 100	–
CSc1nc2c(ncn2C2OCC(O)C(O)C2O)c(=O)[nH]1 (stereo not given)	> 100	–	> 100	> 100	> 100	> 100	> 100	–	> 100	> 100
Cc1c(-c2coc(-c3ccc(Cl)cc3)n2)c(=O)n(-c2ccccc2)n1C	> 100	–	> 100	> 100	> 100	> 100	> 100	–	> 100	–
C=CCOn1c(C=C)nc2c(C)cccc21	14.4	19.1	3.6	13.9	22.7	12.2	23.3	7.25	12.1	–
Cc1cccc(N2CCN(S(=O)(=O)c3ccc(Cl)cc3)C2=N)c1C	> 100	> 100	> 100	–	99.3	–	> 100	> 100	> 100	> 100
C=C(CCC(C(=O)O)C1CCC2(C)C3=C(CCC12C)C1(C)CCC(O)C(C)(C)C1CC3)C(C)C (stereo not given)	> 100	> 100	> 100	68.5	63.1	89	> 100	> 100	> 100	–
CSc1nc(Br)nc2c1ncn2C1CC(Oc2ccc(C)cc2)C(COc2ccc(C)cc2)O1 (stereo not given)	> 100	> 100	> 100	> 100	> 100	> 100	> 100	> 100	> 100	–
COc1ccc(S(=O)(=O)Nc2ccc(-c3csc(N4C(=O)/C(=C/C=C\c5ccccc5)N=C4c4ccccc4)n3)cc2)cc1Cl	> 100	–	> 100	51.5	56.5	46.3	> 100	57.1	> 100	62.5
Cc1[nH]c(=O)nc(N/N=C/c2ccc(O)cc2)c1C(=O)Nc1ccc(Cl)cc1	> 100	–	> 100	> 100	> 100	–	–	–	> 100	–
COc1cc(CC(=O)c2ccc3c(c2)OCO3)cc(OC)c1OC	> 100	–	> 100	> 100	> 100	–	> 100	–	> 100	> 100
Cc1ccc(C2=Nn3c(nc4sc(-c5ccccc5)cc4c3=O)SC2)cc1	> 100	> 100	> 100	> 100	> 100	> 100	> 100	> 100	> 100	–
COC(=O)CCc1ccc2c(c1)CC1(C2)Cc2ccc(CCC(=O)OC)cc2C1	> 100	–	> 100	> 100	> 100	97.1	> 100	> 100	> 100	> 100
COc1ccc(NC(=O)C2=C(SC)C(=O)N=C2N)cc1	–	> 100	> 100	> 100	> 100	> 100	–	> 100	> 100	> 100
COc1cc2c(c(OC)c1OC)-c1ccc(SC)c(=O)cc1[C@@H](NC(=O)c1ccc(C#N)cc1)CC2	> 100	–	< 0.01	> 100	> 100	36.7	–	–	> 100	–
COc1cc2cc3c4c(cc(OC)c(OC)c4c2cc1OC)CCN3C(=O)OCCBr	> 100	–	> 100	> 100	> 100	> 100	> 100	–	> 100	> 100
CC(=O)OCC1OC(n2c3c(c(-c4ccco4)c(C#N)c2=S)CCCC3)C(OC(C)=O)C(OC(C)=O)C1OC(C)=O (stereo not given)	> 31.6	–	> 31.6	> 31.6	> 31.6	> 31.6	> 31.6	> 31.6	> 31.6	–
COC1(OC)N=C(N)C2(C#N)/C(=N/N(C)C)CC(C)C12C#N (stereo not given)	> 100	–	> 100	> 100	> 100	> 100	> 100	> 100	> 100	> 100
